Reference: ChEMBL document CHEMBL3885881, “DrugMatrix”

Organism: Rattus norvegicus
Experiment: DrugMatrix - Regimen: Daily Repeat
Type: toxicity, organism-based, Sprague-Dawley
Set-up: regimen Daily Repeat, gender Male, age 6-8 weeks
Conditions: in vivo, po, route oral GAVAGE, vehicle .5 % CMC; for BASOPHIL / EOSINOPHIL / ERYTHROCYTE COUNT / HEMATOCRIT / HEMOGLOBIN / LEUKOCYTE COUNT / LYMPHOCYTE / MEAN CORPUSCULAR HEMOGLOBIN / MEAN CORPUSCULAR HEMOGLOBIN CONCENTRATION / MEAN CORPUSCULAR VOLUME / MONOCYTE / NEUTROPHIL / PLATELET COUNT: tissue Blood
[1] = 0 mg/kg, […], tissue Plasma, dose level Control, time 28 day
[2] = 30 mg/kg, 72 h, dose level M1, time 3 day
[3] = 30 mg/kg, 72 h, tissue Plasma, dose level M1, time 3 day
[4] = 30 mg/kg, 120 h, dose level M1, time 5 day
[5] = 30 mg/kg, 120 h, tissue Plasma, dose level M1, time 5 day
[6] = 300 mg/kg, 72 h, dose level High, time 3 day
[7] = 300 mg/kg, 72 h, tissue Plasma, dose level High, time 3 day
[8] = 300 mg/kg, 120 h, dose level High, time 5 day
[9] = 300 mg/kg, 120 h, tissue Plasma, dose level High, time 5 day

For `Cc1ccc2cc3c(ccc4ccccc43)c3c2c1CC3` [3-METHYLCHOLANTHRENE], the CHOLESTEROL [1] was 59.6 mg/dL, the “CREATINE PHOSPHOKINASE” value [1] was 121.8 u/L and the CREATININE [1] was 0.6 mg/dL. The GLUCOSE [1] was 143 mg/dL, the “LACTATE DEHYDROGENASE” value [1] was 87.8 u/L and the LIPASE [1] was 17.4 u/L. The PHOSPHORUS [1] was 8.68 mg/dL, the POTASSIUM [1] was 6.02 MEQ/L and the SODIUM [1] was 152.8 MEQ/L. For the same compound, the “TOTAL BILIRUBIN” value [1] was 0.26 mg/dL, the “TOTAL PROTEIN” value [1] was 6.92 G/DL and the “URIC ACID” value [1] was 0.52 mg/dL. The BASOPHIL [2] was 0.4%, the EOSINOPHIL [2] was 0.4% and the “ERYTHROCYTE COUNT” value [2] was 6.58 x10E6/uL. For the same compound, the HEMATOCRIT [2] was 41.43%, the HEMOGLOBIN [2] was 13.13 G/DL and the “LEUKOCYTE COUNT” value [2] was 12.08 x10E3/uL. The LYMPHOCYTE [2] was 83.17%, the “MEAN CORPUSCULAR HEMOGLOBIN” value [2] was 20 pg and the “MEAN CORPUSCULAR HEMOGLOBIN CONCENTRATION” value [2] was 31.7 G/DL. The “MEAN CORPUSCULAR VOLUME” value [2] was 63.07 fL, the MONOCYTE [2] was 2.4% and the NEUTROPHIL [2] was 12.5%. The “PLATELET COUNT” value [2] was 1282.33 x10E3/uL, the “ALANINE AMINOTRANSFERASE” value [3] was 39.67 u/L and the ALBUMIN [3] was 3.57 G/DL. For the same compound, the “ALKALINE PHOSPHATASE” value [3] was 304 u/L, the “ASPARTATE AMINOTRANSFERASE” value [3] was 67.67 u/L and the “BLOOD UREA NITROGEN” value [3] was 12.67 mg/dL. The CHLORIDE [3] was 104 MEQ/L, the CHOLESTEROL [3] was 97.67 mg/dL and the “CREATINE PHOSPHOKINASE” value [3] was 181.67 u/L. For the same compound, the CREATININE [3] was 0.37 mg/dL, the GLUCOSE [3] was 174.33 mg/dL and the PHOSPHORUS [3] was 12.23 mg/dL. For the same compound, the POTASSIUM [3] was 6.87 MEQ/L, the SODIUM [3] was 147.67 MEQ/L and the “TOTAL BILIRUBIN” value [3] was 0.43 mg/dL. The “TOTAL PROTEIN” value [3] was 6.03 G/DL, the BASOPHIL [4] was 0.43% and the EOSINOPHIL [4] was 0.27%. The “ERYTHROCYTE COUNT” value [4] was 6.57 x10E6/uL, the HEMATOCRIT [4] was 43.27% and the HEMOGLOBIN [4] was 13.43 G/DL. The “LEUKOCYTE COUNT” value [4] was 10.87 x10E3/uL, the LYMPHOCYTE [4] was 82.07% and the “MEAN CORPUSCULAR HEMOGLOBIN” value [4] was 20.43 pg. The “MEAN CORPUSCULAR HEMOGLOBIN CONCENTRATION” value [4] was 31.07 G/DL, the “MEAN CORPUSCULAR VOLUME” value [4] was 65.87 fL and the MONOCYTE [4] was 2.43%. For the same compound, the NEUTROPHIL [4] was 13.57%, the “PLATELET COUNT” value [4] was 1575.33 x10E3/uL and the “ALANINE AMINOTRANSFERASE” value [5] was 38.33 u/L. For the same compound, the ALBUMIN [5] was 3.47 G/DL, the “ALKALINE PHOSPHATASE” value [5] was 335.67 u/L and the “ASPARTATE AMINOTRANSFERASE” value [5] was 70.67 u/L. The “BLOOD UREA NITROGEN” value [5] was 15 mg/dL, the CHLORIDE [5] was 103.33 MEQ/L and the CHOLESTEROL [5] was 82 mg/dL. The “CREATINE PHOSPHOKINASE” value [5] was 189.33 u/L, the CREATININE [5] was 0.4 mg/dL and the GLUCOSE [5] was 182 mg/dL. For the same compound, the PHOSPHORUS [5] was 12.6 mg/dL, the POTASSIUM [5] was 6.87 MEQ/L and the SODIUM [5] was 148.33 MEQ/L. The “TOTAL BILIRUBIN” value [5] was 0.4 mg/dL, the “TOTAL PROTEIN” value [5] was 5.77 G/DL and the BASOPHIL [6] was 0.4%. For the same compound, the EOSINOPHIL [6] was 0.37%, the “ERYTHROCYTE COUNT” value [6] was 6.99 x10E6/uL and the HEMATOCRIT [6] was 43.53%. The HEMOGLOBIN [6] was 13.6 G/DL, the “LEUKOCYTE COUNT” value [6] was 10.06 x10E3/uL and the LYMPHOCYTE [6] was 78.97%. The “MEAN CORPUSCULAR HEMOGLOBIN” value [6] was 19.47 pg, the “MEAN CORPUSCULAR HEMOGLOBIN CONCENTRATION” value [6] was 31.3 G/DL and the “MEAN CORPUSCULAR VOLUME” value [6] was 62.23 fL. For the same compound, the MONOCYTE [6] was 2.83%, the NEUTROPHIL [6] was 15.97% and the “PLATELET COUNT” value [6] was 1201 x10E3/uL. For the same compound, the “ALANINE AMINOTRANSFERASE” value [7] was 33.33 u/L, the ALBUMIN [7] was 3.53 G/DL and the “ALKALINE PHOSPHATASE” value [7] was 316 u/L. The “ASPARTATE AMINOTRANSFERASE” value [7] was 60 u/L, the “BLOOD UREA NITROGEN” value [7] was 12.67 mg/dL and the CHLORIDE [7] was 103.67 MEQ/L. For the same compound, the CHOLESTEROL [7] was 97.67 mg/dL, the “CREATINE PHOSPHOKINASE” value [7] was 153 u/L and the CREATININE [7] was 0.43 mg/dL. For the same compound, the GLUCOSE [7] was 185.67 mg/dL, the PHOSPHORUS [7] was 12.47 mg/dL and the POTASSIUM [7] was 6.9 MEQ/L. For the same compound, the SODIUM [7] was 147 MEQ/L, the “TOTAL BILIRUBIN” value [7] was 0.5 mg/dL and the “TOTAL PROTEIN” value [7] was 5.83 G/DL. For the same compound, the BASOPHIL [8] was 0.55%, the EOSINOPHIL [8] was 0.15% and the “ERYTHROCYTE COUNT” value [8] was 6.96 x10E6/uL. The HEMATOCRIT [8] was 44.15%, the HEMOGLOBIN [8] was 14.05 G/DL and the “LEUKOCYTE COUNT” value [8] was 9.75 x10E3/uL. The LYMPHOCYTE [8] was 87.2%, the “MEAN CORPUSCULAR HEMOGLOBIN” value [8] was 20.2 pg and the “MEAN CORPUSCULAR HEMOGLOBIN CONCENTRATION” value [8] was 31.8 G/DL. For the same compound, the “MEAN CORPUSCULAR VOLUME” value [8] was 63.45 fL, the MONOCYTE [8] was 2.05% and the NEUTROPHIL [8] was 8.8%. For the same compound, the “PLATELET COUNT” value [8] was 1398 x10E3/uL, the “ALANINE AMINOTRANSFERASE” value [9] was 37 u/L and the ALBUMIN [9] was 3.63 G/DL. The “ALKALINE PHOSPHATASE” value [9] was 280 u/L, the “ASPARTATE AMINOTRANSFERASE” value [9] was 66.33 u/L and the “BLOOD UREA NITROGEN” value [9] was 14.67 mg/dL. The CHLORIDE [9] was 103 MEQ/L, the CHOLESTEROL [9] was 112 mg/dL and the “CREATINE PHOSPHOKINASE” value [9] was 163.67 u/L. For the same compound, the CREATININE [9] was 0.4 mg/dL, the GLUCOSE [9] was 178.33 mg/dL and the PHOSPHORUS [9] was 13.37 mg/dL. For the same compound, the POTASSIUM [9] was 7.9 MEQ/L, the SODIUM [9] was 147.33 MEQ/L and the “TOTAL BILIRUBIN” value [9] was 0.4 mg/dL. For the same compound, the “TOTAL PROTEIN” value [9] was 6.13 G/DL.
